Test results published in patent US20090042726A1, “Novel Herbicides” (SYNGENTA LIMITED, priority 2005, published 2009).

Legend:
[1] = system: Monocotyledonous and dicotyledonous test plants; experiment: Herbicidal action, application pre-emergence (Example B1); assay type: in vivo; parameters: key: 10=total damage to plant; 0=no damage to plant; settings: 1000 g/ha, evaluated after 9 or 13 days; for AGSTE herbicidal action (damage score 0-10): Agrostis-tenius; for AMARE herbicidal action (damage score 0-10): Amaranthus retroflexus; for DIGSA herbicidal action (damage score 0-10): Digitaria sanguinalis; for POATR herbicidal action (damage score 0-10): Poa trivialis; for SETIT herbicidal action (damage score 0-10): Setaria italica
Outline: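 Seeds sown in sterilised standard soil were sprayed one day after sowing (pre-emergence) with 1000 mg/l active ingredient in aqueous solution containing 10% DMSO. Plants were kept in a climatic chamber at 24/19° C. day/night after application. Damage was scored 0 (none) to 10 (total) after 9 or 13 days.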

SMILES	melting point [°C]	AGSTE herbicidal action (damage score 0-10) [1]	AMARE herbicidal action (damage score 0-10) [1]	DIGSA herbicidal action (damage score 0-10) [1]	POATR herbicidal action (damage score 0-10) [1]	SETIT herbicidal action (damage score 0-10) [1]
Cc1nc(C(Cl)S(=O)(=O)C2=NOC(C)(C)C2F)n(C)n1 (racemic) [8.05, 3-[chloro-(1,3-dimethyl-1H-[1,2,4]triazol-5-yl)-methane-sulfonyl]-4-fluoro-5,5-dimethyl-4,5-dihydro-isoxazole]	140 to 141	10	10	9	8	
Cc1nc(CS(=O)(=O)C2=NOC(C)(C)C2F)n(C)n1 (centres unmarked) [8.04, 3-[(1,3-dimethyl-1H-[1,2,4]-triazol-5-yl)-methanesulfonyl]-4-fluoro-5,5-dimethyl-4,5-dihydro-isoxazole]	182 to 184					
Cn1nc(C(F)(F)F)c(CS(=O)(=O)C2=NOC(C)(C)C2Cl)c1OCC(F)(F)F (centres unmarked) [Compound No. 2.15, 4-chloro-5,5-dimethyl-3-[1-methyl-5-(2,2,2-trifluoro-ethoxy)-3-trifluoromethyl-1H-pyrazol-4-ylmethylsulfonyl]-4,5-dihydro-isoxazole]	111 to 112	10	8	8	10	6
Cn1nc(C(F)(F)F)c(CSC2=NOC(C)(C)C2F)c1OCC(F)(F)F (centres unmarked) [Compound No. 2.07, 4-fluoro-5,5-dimethyl-3-[1-methyl-5-(2,2,2-trifluoro-ethoxy)-3-trifluoromethyl-1H-pyrazol-4-ylmethylsulfanyl]-4,5-dihydro-isoxazole]	50 to 51					
CC1(C)ON=C(S(=O)(=O)C(F)(F)c2c(F)cccc2F)C1F (centres unmarked) [Compound No. 1.18, 3-[(2,6-difluoro-phenyl)-difluoro-methanesulfonyl]-4-fluoro-5,5-dimethyl-4,5-dihydro-isoxazole]	115 to 116	10	10	10	8	9
CC1(C)ON=C([S+]([O-])Cc2nn(C3CCCC3)nc2C(F)(F)F)C1F (mixture of isomers) [7.13]		10	4	9	8	
CC1(C)ON=C([S+]([O-])Cc2c(F)cccc2F)C1F (single isomer, unassigned) [1.15]		10	9	9	10	9
COc1ncc(CS(=O)(=O)C2=NOC(C)(C)C2F)c(C(F)(F)F)n1 (centres unmarked) [5.03]		10	10	8	10	
CCc1nn(C)nc1CS(=O)(=O)C1=NOC(C)(C)C1F (centres unmarked) [7.33]		10	10	10	10	
Cc1nn(C)nc1C[S+]([O-])C1=NOC(C)(C)C1F (single isomer, unassigned) [7.03]		8	6	10	10	9
